Assay results taken from patent US9422293B2 (priority 2006, dated 2016).
pIC50: −log10 of the molar value. Where a name gives a salt, the structure may show the parent alone.

molecular target: rat TRPV1 (Rattus norvegicus (Rat), UniProt O35433); conditions: read-out: Rat IC50
Sequence (O35433 whole entry): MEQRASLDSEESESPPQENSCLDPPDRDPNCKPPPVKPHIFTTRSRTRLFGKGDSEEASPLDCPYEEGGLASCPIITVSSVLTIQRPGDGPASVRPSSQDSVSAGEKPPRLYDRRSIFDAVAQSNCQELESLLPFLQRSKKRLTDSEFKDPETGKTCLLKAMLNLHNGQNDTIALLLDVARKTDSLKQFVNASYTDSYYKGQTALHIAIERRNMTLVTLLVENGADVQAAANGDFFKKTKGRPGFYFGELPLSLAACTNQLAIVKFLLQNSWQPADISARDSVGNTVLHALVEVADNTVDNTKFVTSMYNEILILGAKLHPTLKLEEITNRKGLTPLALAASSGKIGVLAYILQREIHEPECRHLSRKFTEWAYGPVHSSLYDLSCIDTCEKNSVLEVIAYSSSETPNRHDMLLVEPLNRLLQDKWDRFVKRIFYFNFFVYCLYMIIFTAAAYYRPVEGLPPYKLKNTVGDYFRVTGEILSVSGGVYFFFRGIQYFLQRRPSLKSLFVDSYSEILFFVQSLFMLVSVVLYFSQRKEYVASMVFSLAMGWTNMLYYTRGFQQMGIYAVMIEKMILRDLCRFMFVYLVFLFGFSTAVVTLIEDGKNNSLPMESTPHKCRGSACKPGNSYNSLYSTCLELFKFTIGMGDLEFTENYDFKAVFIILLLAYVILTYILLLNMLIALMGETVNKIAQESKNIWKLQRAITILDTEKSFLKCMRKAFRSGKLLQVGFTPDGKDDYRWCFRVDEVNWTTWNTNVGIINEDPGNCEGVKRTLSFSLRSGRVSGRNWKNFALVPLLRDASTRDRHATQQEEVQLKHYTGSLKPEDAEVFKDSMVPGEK

Structure (SMILES) | pIC50
FC(F)(F)c1ccc(Nc2nc(OC3CCCCC3)nc3c2CCN(c2ncccc2C(F)(F)F)CC3)cc1 [Example 338, 2-(Cyclohexyloxy)-N-[4-(trifluoromethyl)phenyl]-7-[3-(trifluoromethyl)pyridin-2-yl]-6,7,8,9-tetrahydro-5H-pyrimido[4,5-d]azepin-4-amine] | 6.40
Cc1cc(C(F)(F)F)ccc1Nc1nc(OC2CCOCC2)nc2c1CCN(c1ncccc1C(F)(F)F)CC2 [Example 312, N-[2-Methyl-4-(trifluoromethyl)phenyl]-2-(tetrahydro-2H-pyran-4-yloxy)-7-[3-(trifluoromethyl)pyridin-2-yl]-6,7,8,9-tetrahydro-5H-pyrimido[4,5-d]azepin-4-amine] | 6.35
CN(C)c1ccc(Nc2nc(N(C)C)nc3c2CCN(c2ncccc2C(F)(F)F)CC3)cc1 [Example 79B, N^4-(4-Dimethylamino-phenyl)-N^2,N^2-dimethyl-7-(3-trifluoromethyl-pyridin-2-yl)-6,7,8,9-tetrahydro-5H-pyrimido[4,5-d]azepine-2,4-diamine trifluoroacetic acid salt] | 5.89
Cc1cc(C(F)(F)F)ccc1Nc1nc(SC2CCOC2C)nc2c1CCN(c1ncccc1C(F)(F)F)CC2 (stereo not drawn) [Example 369, 2,5-Anhydro-1,4-dideoxy-3-S-(4-{[2-methyl-4-(trifluoromethyl)phenyl]amino}-7-[3-(trifluoromethyl)pyridin-2-yl]-6,7,8,9-tetrahydro-5H-pyrimido[4,5-d]azepin-2-yl)-3-thiopentitol] | 8.00
CC(Oc1nc2c(c(Nc3ccc(C(F)(F)F)cc3)n1)CCN(c1ncccc1C(F)(F)F)CC2)C1CCCCC1 (stereo not drawn) [Example 332, 2-[(1-Cyclohexylethyl)oxy]l-N-[4-(trifluoromethyl)phenyl]-7-[3-(trifluoromethyl)pyridin-2-yl]-6,7,8,9-tetrahydro-5H-pyrimido[4,5-d]azepin-4-amine] | 5.69
FC(F)(F)c1ccc(Nc2nc(-c3ccccn3)nc3c2CCN(c2ncccc2C(F)(F)F)CC3)cc1Cl [Example 173, N-[3-Chloro-4-(trifluoromethyl)phenyl]-2-pyridin-2-yl-7-[3-(trifluoromethyl)pyridin-2-yl]-6,7,8,9-tetrahydro-5H-pyrimido[4,5-d]azepin-4-amine trifluoroacetic acid salt] | 6.68
CN(C)CCN(C)c1nc2c(c(Nc3ccc(C(C)(C)C)cc3)n1)CCN(c1ncccc1C(F)(F)F)CC2 [Example 254, N^2-[2-(Dimethylamino)ethyl]-N^4-[4-(1,1-dimethylethyl)phenyl]-N^2-methyl-7-[3-(trifluoromethyl)pyridin-2-yl]-6,7,8,9-tetrahydro-5H-pyrimido[4,5-d]azepine-2,4-diamine] | 7.00
COCCN(C)c1nc2c(c(Nc3ccc(C(F)(F)F)cc3)n1)CCN(c1ncccc1C(F)(F)F)CC2 [Example 93B, N^2-(2-Methoxy-ethyl)-N^2-methyl-N^4-(4-trifluoromethyl-phenyl)-7-(3-trifluoromethyl-pyridin-2-yl)-6,7,8,9-tetrahydro-5H-pyrimido[4,5-d]azepine-2,4-diamine trifluoroacetic acid salt] | 7.43
CS(=O)(=O)c1cccnc1N1CCc2ncnc(Nc3ccc(C(F)(F)F)cc3)c2CC1 [Example 283, 7-[3-(Methylsulfonyl)pyridin-2-yl]-N-[4-(trifluoromethyl)phenyl]-6,7,8,9-tetrahydro-5H-pyrimido[4,5-d]azepin-4-amine] | 5.07
FC(F)(F)c1cnc(Nc2nc(N3CCCCC3)nc3c2CCN(c2ncccc2C(F)(F)F)CC3)cn1 [Example 192, [2-Piperidin-1-yl-7-(3-trifluoromethyl-pyridin-2-yl)-6,7,8,9-tetrahydro-5H-pyrimido[4,5-d]azepin-4-yl]-(5-trifluoromethyl-pyrazin-2-yl)-amine] | 7.15
O=S(=O)(c1ccc(Nc2nc(OC3CCCC3)nc3c2CCN(c2ncccc2C(F)(F)F)CC3)cc1)N1CCCC1 [Example 333, 2-(Cyclopentyloxy)-N-[4-(pyrrolidin-1-ylsulfonyl)phenyl]-7-[3-(trifluoromethyl)pyridin-2-yl]-6,7,8,9-tetrahydro-5H-pyrimido[4,5-d]azepin-4-amine] | 7.40
CC(C)NS(=O)(=O)c1cccnc1N1CCc2nc(N3CCCCC3)nc(Nc3ccc(C(F)(F)F)cc3)c2CC1 [Example 300, N-(1-Methylethyl)-2-(2-piperidin-1-yl-4-{[4-(trifluoromethyl)phenyl]amino}-5,6,8,9-tetrahydro-7H-pyrimido[4,5-d]azepin-7-yl)pyridine-3-sulfonamide] | 5.70
NC(=O)c1cccnc1N1CCc2ncnc(Nc3ccc(C(F)(F)F)cc3)c2CC1 [Example 294, 2-(4-{[4-(Trifluoromethyl)phenyl]amino}-5,6,8,9-tetrahydro-7H-pyrimido[4,5-d]azepin-7-yl)pyridine-3-carboxamide trifluoroacetic acid salt] | 5.53
FC(F)(F)c1ccc(Nc2nc(-c3ccco3)nc3c2CCN(c2ncccc2C(F)(F)F)CC3)cc1 [Example 144, 2-Furan-2-yl-N-[4-(trifluoromethyl)phenyl]-7-[3-(trifluoromethyl)pyridin-2-yl]-6,7,8,9-tetrahydro-5H-pyrimido[4,5-d]azepin-4-amine] | 6.62
CC(C)c1nc2c(c(NCc3ccc(Cl)c(C(F)(F)F)c3)n1)CCN(c1ncccc1C(F)(F)F)CC2 [Example 115, N-{[4-Chloro-3-(trifluoromethyl)phenyl]methyl}-2-(1-methylethyl)-7-[3-(trifluoromethyl)pyridin-2-yl]-6,7,8,9-tetrahydro-5H-pyrimido[4,5-d]azepin-4-amine] | 5.42
FC(F)(F)c1ccc(Nc2nc(Oc3ccccc3)nc3c2CCN(c2ncccc2C(F)(F)F)CC3)cc1 [Example 342, 2-(Phenyloxy)-N-[4-(trifluoromethyl)phenyl]-7-[3-(trifluoromethyl)pyridin-2-yl]-6,7,8,9-tetrahydro-5H-pyrimido[4,5-d]azepin-4-amine trifluoroacetic acid salt] | 7.22
CC(C)c1nc2c(c(Nc3ccc(N4CCCC4)cc3)n1)CCN(c1ncccc1C(F)(F)F)CC2 [Example 377, 2-(1-Methylethyl)-N-(4-pyrrolidin-1-ylphenyl)-7-[3-(trifluoromethyl)pyridin-2-yl]-6,7,8,9-tetrahydro-5H-pyrimido[4,5-d]azepin-4-amine] | 5.85
CSc1nc2c(c(Nc3ccc(C(F)(F)F)cc3)n1)CCN(c1ncccc1C(F)(F)F)CC2 [Example 52, [2-Methylsulfanyl-7-(3-trifluoromethyl-pyridin-2-yl)-6,7,8,9-tetrahydro-5H-pyrimido[4,5-d]azepin-4-yl]-(4-trifluoromethyl-phenyl)-amine] | 7.28
CC(C)c1nc2c(c(Nc3ccc(C(F)(F)F)cc3)n1)CCN(c1ncccc1NS(C)(=O)=O)CC2 [Example 281, N-{2-[2-(1-Methylethyl)-4-{[4-(trifluoromethyl)phenyl]amino}-5,6,8,9-tetrahydro-7H-pyrimido[4,5-d]azepin-7-yl]pyridin-3-yl}methanesulfonamide] | 5.58
CN(c1nc2c(c(Nc3ccc(C(F)(F)F)nc3)n1)CCN(c1ncccc1C(F)(F)F)CC2)C1CCCCC1 [Example 275, N^2-Cyclohexyl-N^2-methyl-7-[3-(trifluoromethyl)pyridin-2-yl]-N^4-[6-(trifluoromethyl)pyridin-3-yl]-6,7,8,9-tetrahydro-5H-pyrimido[4,5-d]azepine-2,4-diamine] | 6.72
CC(C)c1nc2c(c(NCCc3ccc(F)cc3)n1)CCN(c1ncccc1C(F)(F)F)CC2 [Example 12, [2-(4-Fluoro-phenyl)-ethyl]-[2-isopropyl-7-(3-trifluoromethyl-pyridin-2-yl)-6,7,8,9-tetrahydro-5H-pyrimido[4,5-d]azepin-4-yl]-amine] | 6.02
CN1CCCc2ccc(Nc3nc(OC4CCOCC4)nc4c3CCN(c3ncccc3C(F)(F)F)CC4)cc21 [Example 329, N-(1-Methyl-1,2,3,4-tetrahydroquinolin-7-yl)-2-(tetrahydro-2H-pyran-4-yloxy)-7-[3-(trifluoromethyl)pyridin-2-yl]-6,7,8,9-tetrahydro-5H-pyrimido[4,5-d]azepin-4-amine] | 6.92
FC(F)(F)c1ccc(Nc2nc(NC3CC3)nc3c2CCN(c2ncccc2C(F)(F)F)CC3)cc1 [Example 55B, N^2-Cyclopropyl-N^4-(4-trifluoromethyl-phenyl)-7-(3-trifluoromethyl-pyridin-2-yl)-6,7,8,9-tetrahydro-5H-pyrimido[4,5-d]azepine-2,4-diamine trifluoroacetic acid salt] | 6.82
CN1CCCc2ccc(Nc3nc(OC4CCOC4)nc4c3CCN(c3ncccc3C(F)(F)F)CC4)cc21 (stereo not shown) [Example 323, N-(1-Methyl-1,2,3,4-tetrahydroquinolin-7-yl)-2-(tetrahydrofuran-3-yloxy)-7-[3-(trifluoromethyl)pyridin-2-yl]-6,7,8,9-tetrahydro-5H-pyrimido[4,5-d]azepin-4-amine] | 6.17
CC(C)c1nc2c(c(NCCc3ccc(Cl)cc3)n1)CCN(c1ncccc1C(F)(F)F)CC2 [Example 124, N-[2-(4-Chlorophenyl)ethyl]-2-(1-methylethyl)-7-[3-(trifluoromethyl)pyridin-2-yl]-6,7,8,9-tetrahydro-5H-pyrimido[4,5-d]azepin-4-amine] | 6.24
CC(=O)c1ccc(Nc2nc(N3CCOCC3)nc3c2CCN(c2ncccc2C(F)(F)F)CC3)cc1 [Example 380, 1-[4-({2-Morpholin-4-yl-7-[3-(trifluoromethyl)pyridin-2-yl]-6,7,8,9-tetrahydro-5H-pyrimido[4,5-d]azepin-4-yl}amino)phenyl]ethanone] | 6.64
FC(F)(F)c1ccc(Nc2nc(-c3ccccn3)nc3c2CCN(c2ncccc2C(F)(F)F)CC3)cc1 [Example 172, 2-Pyridin-2-yl-N-[4-(trifluoromethyl)phenyl]-7-[3-(trifluoromethyl)pyridin-2-yl]-6,7,8,9-tetrahydro-5H-pyrimido[4,5-d]azepin-4-aminele 1 trifluoroacetic acid salt] | 6.89

same assay, conditions: read-out: Rat IC50; hydrochloride salt

Structure (SMILES) | pIC50
FC(F)(F)c1ccc(Nc2nc(N3CCOCC3)nc3c2CCN(c2ncccc2C(F)(F)F)CC3)cc1 [Example 40A, [2-Morpholin-4-yl-7-(3-trifluoromethyl-pyridin-2-yl)-6,7,8,9-tetrahydro-5H-pyrimido[4,5-d]azepin-4-yl]-(4-trifluoromethyl-phenyl)-amine hydrochloride salt] | […]
